Reference: patent US10870647B2, “Imidazopyridine derivative, method for preparing same, and pharmaceutical composition containing same as active ingredient for preventing or treating cancer” (DAEGU-GYEONGBUK MEDICAL INNOVATION FOUNDATION, priority 2016, dated 2020)

Legend:
Assay in all cases: Kinase selectivity, scanMAX Kinase assay panel (DiscoverX), % control at 1 uM
Type in all cases: binding
[1] = target: T1, scanMAX Kinase assay panel (Homo sapiens, UniProt Q8TD19); details: NEK9; 1 uM; read-out: Percent Control (%)
T1 construct: purchased DiscoverX
T1 sequence (Q8TD19 1-979): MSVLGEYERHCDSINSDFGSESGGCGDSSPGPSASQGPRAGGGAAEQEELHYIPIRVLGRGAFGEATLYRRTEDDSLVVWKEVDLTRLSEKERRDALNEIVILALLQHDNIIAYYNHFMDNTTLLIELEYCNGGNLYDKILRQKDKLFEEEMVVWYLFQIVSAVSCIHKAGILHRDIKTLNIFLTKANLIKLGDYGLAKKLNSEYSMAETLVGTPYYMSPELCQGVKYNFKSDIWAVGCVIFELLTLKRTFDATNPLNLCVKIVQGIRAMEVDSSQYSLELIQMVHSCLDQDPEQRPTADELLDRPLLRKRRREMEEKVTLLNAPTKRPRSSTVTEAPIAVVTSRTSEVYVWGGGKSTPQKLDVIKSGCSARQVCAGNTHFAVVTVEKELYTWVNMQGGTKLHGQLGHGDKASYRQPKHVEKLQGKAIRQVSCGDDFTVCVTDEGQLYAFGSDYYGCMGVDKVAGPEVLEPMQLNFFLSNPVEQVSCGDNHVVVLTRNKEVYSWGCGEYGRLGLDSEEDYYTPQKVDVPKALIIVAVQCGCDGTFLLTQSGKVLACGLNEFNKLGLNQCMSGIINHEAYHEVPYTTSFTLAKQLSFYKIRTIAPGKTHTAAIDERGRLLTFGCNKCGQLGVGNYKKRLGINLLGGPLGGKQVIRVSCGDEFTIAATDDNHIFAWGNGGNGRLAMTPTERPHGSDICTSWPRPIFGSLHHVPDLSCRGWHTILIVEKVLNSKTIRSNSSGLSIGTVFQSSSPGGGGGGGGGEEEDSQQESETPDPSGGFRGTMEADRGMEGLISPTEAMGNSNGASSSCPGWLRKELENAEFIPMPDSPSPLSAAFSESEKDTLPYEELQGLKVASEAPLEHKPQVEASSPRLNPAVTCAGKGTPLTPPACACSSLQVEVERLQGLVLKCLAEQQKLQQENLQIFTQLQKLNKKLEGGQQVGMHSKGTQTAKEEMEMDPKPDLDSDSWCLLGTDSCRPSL
Outline: (§1)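 Each kinase was first exposed to the test compound at 1 uM in DMSO. Signal was then normalised to positive and negative controls to give % control. Finally, any enzyme showing <35% control was judged inhibited.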

[2] = target: T2, scanMAX Kinase assay panel (Homo sapiens, UniProt Q04759); details: PRKCQ; 1 uM; read-out: Percent Control (%)
T2 construct: purchased DiscoverX
Outline: as §1

[3] = target: T3, scanMAX Kinase assay panel (Homo sapiens, UniProt Q15139); details: PRKD1; 1 uM; read-out: Percent Control (%)
T3 construct: purchased DiscoverX
T3 sequence (Q15139 1-912): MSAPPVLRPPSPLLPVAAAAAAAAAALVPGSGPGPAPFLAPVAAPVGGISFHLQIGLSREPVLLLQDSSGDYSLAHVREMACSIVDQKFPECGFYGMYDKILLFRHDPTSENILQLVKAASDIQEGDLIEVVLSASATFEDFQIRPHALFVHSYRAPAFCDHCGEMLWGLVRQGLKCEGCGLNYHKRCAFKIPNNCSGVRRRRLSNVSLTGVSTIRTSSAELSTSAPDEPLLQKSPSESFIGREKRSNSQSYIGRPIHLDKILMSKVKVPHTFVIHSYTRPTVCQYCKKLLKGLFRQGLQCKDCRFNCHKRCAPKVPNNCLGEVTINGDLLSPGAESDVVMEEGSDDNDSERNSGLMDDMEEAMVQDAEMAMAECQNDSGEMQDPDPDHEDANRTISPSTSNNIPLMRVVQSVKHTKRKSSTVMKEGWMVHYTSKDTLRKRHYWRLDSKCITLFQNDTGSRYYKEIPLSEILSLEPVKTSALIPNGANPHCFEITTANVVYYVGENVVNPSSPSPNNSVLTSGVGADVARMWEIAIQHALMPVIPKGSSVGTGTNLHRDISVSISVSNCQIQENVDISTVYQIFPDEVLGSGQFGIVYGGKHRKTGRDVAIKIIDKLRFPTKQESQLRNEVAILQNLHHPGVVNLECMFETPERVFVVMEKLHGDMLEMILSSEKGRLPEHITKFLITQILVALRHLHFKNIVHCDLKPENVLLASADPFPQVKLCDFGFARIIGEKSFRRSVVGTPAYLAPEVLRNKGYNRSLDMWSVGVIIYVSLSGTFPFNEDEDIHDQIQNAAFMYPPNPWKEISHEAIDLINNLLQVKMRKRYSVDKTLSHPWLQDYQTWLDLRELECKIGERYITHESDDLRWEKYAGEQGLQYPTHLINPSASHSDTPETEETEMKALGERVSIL
Outline: as §1

[4] = target: T4, scanMAX Kinase assay panel (Homo sapiens, UniProt O43318); details: TAK1; 1 uM; read-out: Percent Control (%)
T4 construct: purchased DiscoverX
T4 sequence (O43318 1-606): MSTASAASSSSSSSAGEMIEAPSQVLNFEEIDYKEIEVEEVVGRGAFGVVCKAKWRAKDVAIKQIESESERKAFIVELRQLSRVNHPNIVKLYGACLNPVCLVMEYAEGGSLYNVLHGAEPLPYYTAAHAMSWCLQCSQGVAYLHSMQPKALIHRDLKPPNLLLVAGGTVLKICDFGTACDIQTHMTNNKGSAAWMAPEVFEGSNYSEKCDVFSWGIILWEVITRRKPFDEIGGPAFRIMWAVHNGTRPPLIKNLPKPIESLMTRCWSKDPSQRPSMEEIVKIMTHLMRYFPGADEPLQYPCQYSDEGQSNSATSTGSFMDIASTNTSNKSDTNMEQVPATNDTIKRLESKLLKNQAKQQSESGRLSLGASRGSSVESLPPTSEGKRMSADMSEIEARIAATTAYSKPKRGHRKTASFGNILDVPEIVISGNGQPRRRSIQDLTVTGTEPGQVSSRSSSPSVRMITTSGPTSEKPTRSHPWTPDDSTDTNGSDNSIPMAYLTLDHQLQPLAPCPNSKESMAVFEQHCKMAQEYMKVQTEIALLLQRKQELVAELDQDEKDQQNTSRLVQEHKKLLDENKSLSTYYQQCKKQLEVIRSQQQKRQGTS
Outline: as §1

T2 sequence (Q04759 whole entry): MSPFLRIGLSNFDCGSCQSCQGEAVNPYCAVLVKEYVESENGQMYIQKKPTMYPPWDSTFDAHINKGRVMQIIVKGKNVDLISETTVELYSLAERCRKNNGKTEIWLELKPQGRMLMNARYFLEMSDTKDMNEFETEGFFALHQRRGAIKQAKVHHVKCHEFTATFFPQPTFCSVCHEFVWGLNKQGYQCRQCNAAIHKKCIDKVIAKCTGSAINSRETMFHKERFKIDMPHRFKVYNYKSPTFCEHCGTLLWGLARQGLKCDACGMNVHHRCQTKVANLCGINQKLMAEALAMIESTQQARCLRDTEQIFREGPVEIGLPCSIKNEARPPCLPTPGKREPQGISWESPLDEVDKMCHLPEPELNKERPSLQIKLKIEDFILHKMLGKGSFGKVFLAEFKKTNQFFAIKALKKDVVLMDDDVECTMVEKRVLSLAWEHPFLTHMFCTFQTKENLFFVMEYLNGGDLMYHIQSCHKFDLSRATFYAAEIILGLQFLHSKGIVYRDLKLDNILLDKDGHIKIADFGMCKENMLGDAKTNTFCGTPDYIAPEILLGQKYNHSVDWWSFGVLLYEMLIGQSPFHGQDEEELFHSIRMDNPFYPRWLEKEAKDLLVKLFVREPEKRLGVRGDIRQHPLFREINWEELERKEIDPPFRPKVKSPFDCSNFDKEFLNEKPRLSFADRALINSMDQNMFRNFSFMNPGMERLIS

| Compound | remaining binding at 1 µM [1] | remaining binding at 1 µM [2] | remaining binding at 1 µM [3] | remaining binding at 1 µM [4] |
| --- | --- | --- | --- | --- |
| Cc1ccc(NC(=O)C2(C(=O)Nc3ccc(F)cc3)CC2)cc1C#Cc1cnc2c(Nc3cnn(C(C)C)c3)cccn12 [Example 78] | 100% | 85% | 100% | 76% |
| Cc1cn(-c2cc(NC(=O)c3ccc(C)c(C#Cc4cnc5c(Nc6cnn(C)c6)cccn45)c3)cc(C(F)(F)F)c2)cn1 [Example 12, 4-methyl-N-(3-(4-methyl-1H-imidazol-1-yl)-5-(trifluoromethyl)phenyl)-3-((8-((1-methyl-1H-pyrazol-4-yl)amino)imidazo[1,2-a]pyridin-3-yl)ethynyl)benzamide] | 86% | 87% | 94% | 14% |
| Cc1ccc(C(=O)Nc2ccc(CN3CCN(C)CC3)c(C(F)(F)F)c2)cc1C#Cc1cnc2c(Nc3cnn(C)c3)cccn12 [Example 1, 4-methyl-3-((8-((1-methyl-1H-pyrazol-4-yl)amino)imidazo[1,2-a]pyridin-3-yl)ethynyl)-N-(4-((4-methylpiperazin-1-yl)methyl)-3-(trifluoromethyl)phenyl)benzamide] | 6% | 53% | 54% | 0% |
